Legend:
[1] = serum antibody concentration in xenograft mice (Example 3); assay type: in vivo, mouse; settings: control s.c. infusion
Experimental: (§3) Animals were exposed to estrogen by subcutaneous sustained release estrogen pellet 9 days before the start of dosing to promote growth of grafted tumor cells. The animals were inoculated with the BT474M 1 cells 8 days before the beginning of treatment and tumors were allowed to grow. […] The study groups were treated until day 35. […] Tumor volumes were measured two days before dosing began and twice per week from day 6 to day 35 in the study for which data is tabulated below. Tumors were measured in three dimensions and volumes were expressed in mm^3. Efficacy was determined by a statistical comparison (ANOVA) of tumor volumes of test animals relative to untreated control animals.

[2] = tested on: BT-474M1; assay: nude mouse xenograft tumor volume, i.v. bolus versus s.c. bolus (Example 4); assay type: in vivo; settings: Group 1, IV Control
Experimental: (§1) This study was set up as disclosed herein in Example 3 for the comparison of intravenous bolus and subcutaneous infusion delivery. A sustained release estrogen implant was inserted subcutaneously one day before tumor cell innoculation as described in Example 3. Six days after tumor cell innoculation, the initial tumor measurement was performed. […] Animals were dosed once weekly for 4 weeks.
(§2) The mice were treated according to the information in Table 4 and using the techniques disclosed in Example 3. […] The control E25 antibody serum concentration was determined according to standard immunoassay techniques.
For this study, efficacy was measured as a decrease in tumor volume. Tumor volume was measured twice weekly.

[3] = serum antibody concentration in xenograft mice (Example 4); assay type: in vivo, mouse; settings: Group 1, IV, MD 4 mg/kg
Experimental: as §1, §2

[4] = tested on: BT-474M1; assay: nude mouse xenograft tumor volume, i.v. bolus versus s.c. infusion (Example 3); assay type: in vivo; settings: control s.c. infusion
Experimental: A study in a nude mouse xenograft model, which incorporates a human breast cancer cell line that naturally overexpresses the HER2 gene (BT-474M1, derived from BT-474 cells, ATCC Accession number HTB-20), comparing tumor volume as a function of i.v. bolus versus s.c. infusion was performed as follows. In the first study athymic nude nu nu 7-9 week old female mice were obtained from Taconic Inc (Germantown, N.Y.). To initiate tumor development, each mouse was inoculated subcutaneously with 3×10^6 BT474M1 cells suspended in Matrigel™. When tumor nodules reached a volume of approximately 100 mm^3, animals were randomized to 4 treatment groups.
as §3

[5] = tested on: ErbB2-overexpressing metastatic breast cancer; assay: clinical study of chemotherapy with or without HERCEPTIN (Example 1); assay type: in vivo, human
Text: Eligibility Criteria Patients had to fulfill all of the following criteria to be eligible for study admission: • Metastatic breast cancer • Overexpression of the ErbB2 (HER2) oncogene (2+ to 3+ as determined by immunohistochemistry or fluorescence in situ hybridization (FISH). [Tumor expression of ErbB2 can be determined by immunohistochemical analysis, as previously described (Slamon et al., [1987] and [1989], supra), of a set of thin sections prepared from the patient's paraffin-archived tumor blocks. The primary detecting antibody used is murine 4D5 MAb, which has the same CDRs as the humanized antibody used for the treatment.
Beginning on day 7, patients received weekly administration of 2 mg/kg antibody (i.v.) over a 90-minute period.
The patients received one of two chemotherapy regimens for a minimum of six cycles, provided their disease was not progressing: a) cyclophosphamide and doxorubicin or epirubicin (AC), if patients have not received anthracycline therapy in the adjuvant setting, or b) paclitaxel (T, TAXOL®), if patients have received any anthracycline therapy in the adjuvant setting. […] Subsequent doses of the antibody were given immediately before chemotherapy administration, if the initial dose of the antibody was well tolerated. If the first dose of the antibody was not well tolerated, subsequent infusions continued to precede chemotherapy administration by 24 hours. Patients were permitted to continue receiving chemotherapy beyond six cycles if, in the opinion of the treating physician, they were continuing to receive treatment benefit.
Cyclophosphamide (600 mg/m^2) was given either by iv push over a minimum period of 3 minutes or by infusion over a maximum period of 2 hours.
Doxorubicin (60 mg/m^2) or epirubicin (75 mg/m^2) were given either by slow iv push over a minimum period of 3-5 minutes or by infusion over a maximum period of 2 hours, according to institutional protocol.
All patients receiving paclitaxel were premedicated with dexamethasone (or its equivalent) 20 mg×2, administered orally 12 and 6 hours prior to paclitaxel; diphenhydramine (or its equivalent) 50 mg, iv, administered 30 minutes prior to paclitaxel, and […] (or another H2 blocker) 300 mg, iv, administered 30 minutes prior to paclitaxel.
Progressive disease also includes those instances when new lesions have appeared.
Complete Response Disappearance of all radiographically and/or visually apparent tumor for a minimum of 4 weeks. Skin and chest wall complete responses had to be confirmed by biopsy. […]
Time to disease progression (TTP) was calculated from the beginning of therapy to progression. Confidence limits for response rates were calculated using the exact method for a single proportion. […]

[6] = median follow-up 10.5 months, H 4 mg/kg then 2 mg/kg weekly i.v.

Compound	HERCEPTIN Serum Conc. (μg/ml), Day 27 [1]	Tumor Vol. Day 28, mm^3 [2]	Tumor Vol. Day 31, mm^3 [2]	Tumor Vol. Day 6, mm^3 ([2]; LD 8, MD 4 mg/kg/week, initial measurement before first dose)	Day 6-Day 31 Area Under Curve Tumor Vol., mm^3 ([2]; Day 17 excluded)	Serum Concentration, Mean ([3]; Day 0)	Serum Concentration, Mean ([3]; Day 7)	Serum Concentration, Mean ([3]; Day 14)	Serum Concentration, Mean ([3]; Day 21)	Tumor Volume (area under curve) Day 6-Day 35 [4]	Tumor Volume (mm^3), Day 35 ([4]; IV LD 2.20 mg/kg, infusate […])	syndrome of myocardial dysfunction ([5]; Grade ¾)	AE(%) overall severe adverse events ([5]; median follow-up 10.5 months)	RR(%) [5, 6]	TTP(months) [5, 6]
rhu MAb E25: nonrelevant antibody E25 (non-specific for HER2 receptor, but a member of the monoclonal IgG class)	4.16 ± 1.94 µg/mL	1530 mm^3	1630 mm^3	321 mm^3	13600 mm^3	0 ng/mL	25900 ng/mL	34600 ng/mL	38500 ng/mL	5650 ± 4700	764 ± 700 mm^3				
CC(=O)O[C@H]1C(=O)[C@@]2(C)[C@H]([C@H](OC(=O)c3ccccc3)[C@]3(O)C[C@H](OC(=O)[C@H](O)[C@@H](NC(=O)c4ccccc4)c4ccccc4)C(C)=C1C3(C)C)[C@]1(OC(C)=O)CO[C@@H]1C[C@@H]2O [T, paclitaxel]												0%	59%	25.0%	4.2 months

— patent publication US7371379B2, “Dosages for treatment with anti-ErbB2 antibodies” (Genentech, Inc., priority 1999, dated 2008)
